Experimental findings from US10183943B2, “Heterocyclic compounds and their use in preventing or treating bacterial infections” (MUTABILIS, priority 2015, dated 2019) are described below.

The test system of experiment [1] is K. pneumoniae 6299 (TEM-1, SHV-11, OXA-163). The experiment can be described thus: MIC of compounds alone, broth microdilution. Particulars: Klebsiella pneumoniae; strain 6299 (K. pneumoniae); read-out: MIC compounds of the invention alone. In kind it is cell-based. On the procedure: (§1) Method 2: MIC of Compounds and Synergy with Ceftazidime Against Bacterial Isolates (Table 2 and 3)
(§2) Compounds of the present invention were assessed against genotyped bacterial strains alone or in combination with the β-lactam ceftazidime (CAZ). In the assays, MICs of said compounds, or of ceftazidime at fixed concentrations of said compounds were determined by the broth microdilution method according to the Clinical Laboratory Standards Institute (CLSI-M7-A7). Briefly, compounds alone according to the invention were prepared in DMSO and spotted (2 μL each) on sterile polystyrene plates (Corning, 3788). Compounds and ceftazidime dilutions were prepared in DMSO and spotted (1 μL each) on sterile polystyrene plates (Corning, 3788). Log phase bacterial suspensions were adjusted to a final density of 5×10^5 cfu/mL in cation-adjusted Mueller-Hinton broth (Becton-Dickinson) and added to each well (98 μL). Microplates were incubated for 16-20 h at 35° C. in ambient air. The MIC of the compounds was defined as the lowest concentration of said compounds that prevented bacterial growth as read by visual inspection. The MIC of ceftazidime at each compound concentration was defined as the lowest concentration of ceftazidime that prevented bacterial growth as read by visual inspection.

Experiment [2] relates to P. aeruginosa CIP107051 (TEM-24). The experiment can be described thus: MIC of compounds alone, broth microdilution. Format: cell-based. Particulars: Pseudomonas aeruginosa; strain CIP107051 (P. aeruginosa); read-out: MIC compounds of the invention alone. On the procedure:
as §1, §2
Background: In broth dilution the organism is exposed to a series of concentrations in liquid medium.

Another experiment has as its system E. cloacae P99 (AmpC). The experiment can be described thus: MIC of compounds alone, broth microdilution. Format: cell-based. Particulars: Enterobacter cloacae; strain P99 (E. cloacae); read-out: MIC compounds of the invention alone. On the procedure:
as §1, §2

Experiment [3] has as its system K. pneumoniae BAA-1898 (TEM-1, SHV-11, SHV-12, KPC-2). The experiment can be described thus: MIC of compounds alone, broth microdilution. In kind it is cell-based. Particulars: Klebsiella pneumoniae, BAA1898; strain BAA-1898 (K. pneumoniae); read-out: MIC compounds of the invention alone. On the procedure: as §1, §2
In experiment [4] the test system is E. coli 131119 (TEM-1, OXA-48). The experiment can be described thus: MIC of compounds alone, broth microdilution. In kind it is cell-based. As to conditions: Escherichia coli; strain 131119 (E. coli); read-out: MIC compounds of the invention alone. On the procedure:
as §1, §2

Another experiment deals with E. coli RGN238 (OXA-1). The experiment can be described thus: MIC of compounds alone, broth microdilution. Format: cell-based. Particulars: Escherichia coli; strain RGN238 (E. coli); read-out: MIC compounds of the invention alone. On the procedure:
as §1, §2

The target of a further experiment is T1, OXA-15 (Pseudomonas aeruginosa, UniProt Q51574).
T1 construct: made in house; host or cells: E. coli
The experiment can be described thus: biochemical.

The target of another experiment is T2, TEM-1 (Escherichia coli, UniProt P62593).
T2 construct: made in house; host or cells: E. coli
The experiment can be described thus: β-lactamase inhibitory activity, determination of IC50 (nitrocefin hydrolysis). In kind it is biochemical.

The next experiment deals with T3, OXA-1 (Escherichia coli, UniProt P13661).
T3 construct: made in house; host or cells: E. coli
Described as above. In kind it is biochemical. As to conditions: class (D); nitrocefin 200 μM, 30 min pre-incubation; read-out: IC50 β-lactamase OXA-1.

For another experiment, the target named is AmpC P. aeruginosa (Pseudomonas aeruginosa, UniProt P24735). The experiment is described as above.
In a further experiment the target is T4, OXA-11 (Pseudomonas aeruginosa, UniProt Q06778).
T4 construct: made in house; host or cells: E. coli
Described as above. In kind it is biochemical.

In the next experiment the target is T5, SHV-1 (Klebsiella pneumoniae, UniProt P0AD64).
T5 construct: made in house; host or cells: E. coli
The experiment is described as above. In kind it is biochemical.

The target in another experiment is AmpC (P99) (Enterobacter cloacae, UniProt P05364). The description is as above.
For the next experiment, the target named is T6, CTX-M-15 (Escherichia coli, UniProt Q9EXV5).
T6 construct: made in house; host or cells: E. coli
Described as above. In kind it is biochemical. As to conditions: class (A); nitrocefin 200 μM, 30 min pre-incubation; read-out: IC50 β-lactamase CTX-M-15.

The target in the next experiment is T7, OXA-48 (Klebsiella pneumoniae, UniProt Q6XEC0).
T7 construct: made in house; host or cells: E. coli
The experiment is described as above. Format: biochemical. Particulars: class (D); nitrocefin 200 μM, 30 min pre-incubation; read-out: IC50 β-lactamase OXA-48.

Another experiment addresses T8, KPC-2 (Klebsiella pneumoniae, UniProt Q9F663).
T8 construct: made in house; host or cells: E. coli
Described as above. Format: biochemical. As to conditions: class (A); nitrocefin 200 μM, 30 min pre-incubation; read-out: IC50 β-lactamase KPC-2.

Each structure is given as a SMILES string.

T4 sequence (Q06778 21-266): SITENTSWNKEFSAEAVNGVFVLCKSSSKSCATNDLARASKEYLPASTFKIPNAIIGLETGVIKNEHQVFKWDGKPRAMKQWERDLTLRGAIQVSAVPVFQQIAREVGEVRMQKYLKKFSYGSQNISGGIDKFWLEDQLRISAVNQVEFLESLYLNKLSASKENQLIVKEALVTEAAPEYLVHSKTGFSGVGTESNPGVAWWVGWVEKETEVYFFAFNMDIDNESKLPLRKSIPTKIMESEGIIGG
T7 sequence (Q6XEC0 23-265 limits assumed): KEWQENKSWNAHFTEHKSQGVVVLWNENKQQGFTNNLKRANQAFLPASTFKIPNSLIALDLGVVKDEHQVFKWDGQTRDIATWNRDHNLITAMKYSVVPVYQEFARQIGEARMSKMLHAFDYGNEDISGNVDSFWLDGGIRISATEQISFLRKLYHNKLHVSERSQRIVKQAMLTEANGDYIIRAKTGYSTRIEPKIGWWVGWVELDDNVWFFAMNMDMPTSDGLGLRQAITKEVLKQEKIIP
T5 sequence (P0AD64 22-286): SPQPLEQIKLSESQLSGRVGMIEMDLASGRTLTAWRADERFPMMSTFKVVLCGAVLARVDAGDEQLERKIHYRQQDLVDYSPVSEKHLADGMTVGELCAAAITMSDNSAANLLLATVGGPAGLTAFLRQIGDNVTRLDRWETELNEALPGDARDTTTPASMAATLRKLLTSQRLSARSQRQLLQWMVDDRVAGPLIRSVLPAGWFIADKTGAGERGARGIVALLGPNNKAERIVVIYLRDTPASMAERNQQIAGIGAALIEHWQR
T8 sequence (Q9F663 25-293 limits assumed): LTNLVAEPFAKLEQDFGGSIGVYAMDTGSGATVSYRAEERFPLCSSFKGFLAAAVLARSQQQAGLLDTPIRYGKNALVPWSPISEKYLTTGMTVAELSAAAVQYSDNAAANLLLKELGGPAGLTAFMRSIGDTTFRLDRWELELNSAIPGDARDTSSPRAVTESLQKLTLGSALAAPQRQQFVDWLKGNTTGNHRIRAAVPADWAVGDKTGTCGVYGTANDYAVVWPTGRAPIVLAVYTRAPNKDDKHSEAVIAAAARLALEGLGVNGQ
T1 sequence (Q51574 22-275): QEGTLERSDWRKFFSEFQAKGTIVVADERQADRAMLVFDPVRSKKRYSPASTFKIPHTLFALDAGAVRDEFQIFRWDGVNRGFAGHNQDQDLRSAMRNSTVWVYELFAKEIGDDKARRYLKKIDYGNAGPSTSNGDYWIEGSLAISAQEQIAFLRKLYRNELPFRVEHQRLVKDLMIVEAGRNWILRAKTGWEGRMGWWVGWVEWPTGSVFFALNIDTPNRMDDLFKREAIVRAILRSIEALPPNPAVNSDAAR
T6 sequence (Q9EXV5 entry or part of it): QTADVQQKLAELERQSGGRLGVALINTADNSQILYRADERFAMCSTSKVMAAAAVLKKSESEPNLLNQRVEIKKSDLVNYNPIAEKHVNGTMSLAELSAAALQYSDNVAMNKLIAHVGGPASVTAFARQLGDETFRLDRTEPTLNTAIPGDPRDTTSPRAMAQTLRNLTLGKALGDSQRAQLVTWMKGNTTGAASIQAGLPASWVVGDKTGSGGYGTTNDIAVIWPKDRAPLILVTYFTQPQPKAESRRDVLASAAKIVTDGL
T3 sequence (P13661 26-276): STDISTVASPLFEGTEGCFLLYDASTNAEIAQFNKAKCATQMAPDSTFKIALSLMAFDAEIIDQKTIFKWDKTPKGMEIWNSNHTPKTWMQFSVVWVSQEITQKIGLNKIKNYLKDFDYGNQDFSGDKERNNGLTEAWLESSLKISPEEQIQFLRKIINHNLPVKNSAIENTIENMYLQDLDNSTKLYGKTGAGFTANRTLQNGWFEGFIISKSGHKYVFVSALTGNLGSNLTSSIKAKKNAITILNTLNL
Sequence of AmpC P. aeruginosa (P24735 27-397): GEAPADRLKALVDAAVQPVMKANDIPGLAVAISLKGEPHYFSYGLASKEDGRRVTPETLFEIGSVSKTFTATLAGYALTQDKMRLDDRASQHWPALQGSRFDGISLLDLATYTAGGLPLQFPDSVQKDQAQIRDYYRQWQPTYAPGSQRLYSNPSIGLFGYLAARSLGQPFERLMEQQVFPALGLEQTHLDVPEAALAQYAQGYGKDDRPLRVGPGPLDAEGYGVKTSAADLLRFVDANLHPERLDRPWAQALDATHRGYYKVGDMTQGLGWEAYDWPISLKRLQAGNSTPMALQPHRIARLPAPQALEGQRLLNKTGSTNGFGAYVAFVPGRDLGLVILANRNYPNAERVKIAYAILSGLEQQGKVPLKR
Sequence of AmpC (P99) (P05364 21-381): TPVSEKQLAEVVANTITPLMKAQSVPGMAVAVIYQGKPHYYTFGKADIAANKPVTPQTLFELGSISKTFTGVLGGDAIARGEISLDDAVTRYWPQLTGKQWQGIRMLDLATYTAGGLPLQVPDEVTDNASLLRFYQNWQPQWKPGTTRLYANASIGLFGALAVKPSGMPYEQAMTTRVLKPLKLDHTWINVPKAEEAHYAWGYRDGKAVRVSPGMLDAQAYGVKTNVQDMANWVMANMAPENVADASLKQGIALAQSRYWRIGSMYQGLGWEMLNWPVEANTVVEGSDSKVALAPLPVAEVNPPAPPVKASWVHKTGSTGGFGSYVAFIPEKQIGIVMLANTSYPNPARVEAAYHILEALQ
T2 sequence (P62593 24-286 limits assumed): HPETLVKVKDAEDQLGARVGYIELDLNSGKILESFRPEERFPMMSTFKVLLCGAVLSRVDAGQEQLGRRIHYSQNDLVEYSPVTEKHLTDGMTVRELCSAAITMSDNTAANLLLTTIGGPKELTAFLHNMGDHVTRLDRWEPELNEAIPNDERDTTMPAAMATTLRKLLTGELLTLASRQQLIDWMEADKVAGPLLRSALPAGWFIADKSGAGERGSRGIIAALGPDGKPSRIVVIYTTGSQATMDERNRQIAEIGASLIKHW

For orientation: MIC means the smallest concentration in the dilution series that meets the test's criterion for growth inhibition. The IC50 is the concentration that gives 50% inhibition. Regarding `O=C1N2CC=C(c3cccnc3)C(C2)N1OS(=O)(=O)[O-].[Na+]` (centres unmarked) [Example 9, Sodium [4-(3-pyridyl)-7-oxo-1,6-diazabicyclo[3.2.1]oct-3-en-6-yl]sulfate], the MIC was more than 32 µg/mL in experiment [1]; more than 32 µg/mL in [2]; more than 32 µg/mL in the experiment on E. cloacae P99 (AmpC); more than 32 µg/mL in [3]; 16 µg/mL in experiment [4]; more than 32 µg/mL in the experiment on E. coli RGN238 (OXA-1). For the same compound, the concentration for half-maximal inhibition (IC50) at OXA-15 was found to be 52 nM; against TEM-1, 3.8 nM; on OXA-1, 130 nM; against AmpC P. aeruginosa, 810 nM; on OXA-11, 730 nM; on SHV-1 it was 11 nM. Further, the IC50 on AmpC (P99) came to 770 nM; on CTX-M-15 it was 4.8 nM; on OXA-48, 1.4 nM; on KPC-2, 68 nM.

Consider `Cn1ccc(C2=CCN3CC2N(OS(=O)(=O)[O-])C3=O)cc1=O.[Na+]` (centres unmarked) [Example 13, Sodium [4-(1-methyl-2-oxo-4-pyridyl)-7-oxo-1,6-diazabicyclo[3.2.1]oct-3-en-6-yl] sulfate], for which the MIC in [1] is more than 32 µg/mL; in [2], more than 32 µg/mL; in the experiment on E. cloacae P99 (AmpC), 16 µg/mL; in experiment [3], more than 32 µg/mL; in experiment [4] it was 8 µg/mL; with E. coli RGN238 (OXA-1), more than 32 µg/mL. The half-maximal inhibitory concentration (IC50) against OXA-15 was determined as 230 nM; against TEM-1 it was 6.1 nM; on OXA-1, 820 nM; at AmpC P. aeruginosa, 3200 nM; on OXA-11, 730 nM; at SHV-1, 8.8 nM. Moreover, the half-maximal inhibitory concentration (IC50) on AmpC (P99) came out at 2800 nM; on CTX-M-15 it was 6 nM; at OXA-48, 2.3 nM; at KPC-2, 63 nM.

Take `Cn1cc(C2=CCN3CC2N(OS(=O)(=O)[O-])C3=O)ncc1=O.[Na+]` (centres unmarked) [Example 14, Sodium [4-(4-methyl-5-oxo-pyrazin-2-yl)-7-oxo-1,6-diazabicyclo[3.2.1]oct-3-en-6-yl] sulfate]: the MIC in experiment [1] is more than 32 µg/mL; in [2], more than 32 µg/mL; in the experiment on E. cloacae P99 (AmpC), 8 µg/mL; in [3], more than 32 µg/mL; in experiment [4], 8 µg/mL; with E. coli RGN238 (OXA-1), more than 32 µg/mL. In addition, the IC50 stood at 33 nM on OXA-15; 1.6 nM against TEM-1; 730 nM at OXA-1; 1900 nM against AmpC P. aeruginosa; 920 nM at OXA-11; 2.9 nM on SHV-1. Moreover, the IC50 was found to be 890 nM against AmpC (P99), 2.7 nM on CTX-M-15, 1.4 nM at OXA-48 and 52 nM on KPC-2.

In the case of `O=C1N2CC(c3cnoc3)=CC(C2)N1OS(=O)(=O)[O-].[Na+]` (centres unmarked) [Example 26, sodium [3-(isoxazol-4-yl)-7-oxo-1,6-diazabicyclo[3.2.1]oct-3-en-6-yl] sulfate], the minimal inhibitory concentration (MIC) in experiment [1] is 8 µg/mL; in experiment [2], more than 32 µg/mL; with E. cloacae P99 (AmpC), 8 µg/mL; in experiment [3], 8 µg/mL; in [4], 2 µg/mL; in the experiment on E. coli RGN238 (OXA-1), 4 µg/mL. Also, the 50% inhibitory concentration (IC50) against OXA-15 worked out at 210 nM; on TEM-1 it was 4.8 nM; at OXA-1 it was 370 nM; on AmpC P. aeruginosa it was 74 nM; against OXA-11, 140 nM; against SHV-1 it was 13 nM. The half-maximal inhibitory concentration (IC50) at AmpC (P99) was 51 nM; on CTX-M-15, 5.7 nM; at OXA-48, 6.6 nM; at KPC-2, 4.2 nM.

In the case of `O=C1N2CC=C(c3ccns3)C(C2)N1OS(=O)(=O)[O-].[Na+]` (centres unmarked) [Example 30, Sodium [4-(isothiazol-5-yl)-7-oxo-1,6-diazabicyclo[3.2.1]oct-3-en-6-yl] sulfate], the minimal inhibitory concentration (MIC) in experiment [1] was more than 32 µg/mL; in experiment [2], more than 32 µg/mL; with E. cloacae P99 (AmpC) it was 8 µg/mL; in experiment [3], more than 32 µg/mL; in experiment [4], 4 µg/mL; in the experiment with E. coli RGN238 (OXA-1), more than 32 µg/mL. For the same compound, the IC50 against OXA-15 is 23 nM; on TEM-1, 5.2 nM; at OXA-1, 150 nM; on AmpC P. aeruginosa it was 780 nM; on OXA-11 it was 720 nM; at SHV-1, 15 nM. For the same compound, the IC50 against AmpC (P99) amounted to 200 nM; on CTX-M-15, 1.8 nM; on OXA-48, 2.5 nM; on KPC-2 it was 63 nM.

With `O=C1N2CC(n3ccnc3)=CC(C2)N1OS(=O)(=O)[O-].[Na+]` (centres unmarked) [Example 34, Sodium [3-imidazol-1-yl-7-oxo-1,6-diazabicyclo[3.2.1]oct-3-en-6-yl]sulfate], the minimal inhibitory concentration (MIC) in [1] is 32 µg/mL; in [2], more than 32 µg/mL; in the experiment on E. cloacae P99 (AmpC) it was 8 µg/mL; in experiment [3], 16 µg/mL; in experiment [4], 8 µg/mL; in the experiment with E. coli RGN238 (OXA-1), 16 µg/mL. Moreover, the IC50 against OXA-15 was determined as 220 nM; at TEM-1 it was 7.2 nM; at OXA-1, 410 nM; against AmpC P. aeruginosa, 500 nM; at OXA-11, 650 nM; on SHV-1, 21 nM. Also, the IC50 on AmpC (P99) stood at 59 nM; on CTX-M-15 it was 2.7 nM; on OXA-48 it was 220 nM; on KPC-2, 24 nM.

Regarding `O=C1N2CC(c3cnco3)=CC(C2)N1OS(=O)(=O)[O-].[Na+]` (centres unmarked) [Example 35, Sodium [3-(oxazol-5-yl)-7-oxo-1,6-diazabicyclo[3.2.1]oct-3-en-6-yl]sulfate], the MIC in experiment [1] was 8 µg/mL; in [2] it was more than 32 µg/mL; in the experiment on E. cloacae P99 (AmpC), 8 µg/mL; in experiment [3], 4 µg/mL; in [4], 2 µg/mL; in the experiment with E. coli RGN238 (OXA-1) it was 4 µg/mL. In addition, the IC50 is 74 nM against OXA-15; 2.3 nM against TEM-1; 1400 nM at OXA-1; 210 nM at AmpC P. aeruginosa; 300 nM on OXA-11; 8.4 nM against SHV-1. The half-inhibitory concentration (IC50) at AmpC (P99) came to 51 nM; at CTX-M-15, 0.81 nM; on OXA-48 it was 2.5 nM; on KPC-2, 8.2 nM.

Consider `O=C1N2CC(c3ncon3)=CC(C2)N1OS(=O)(=O)[O-].[Na+]` (centres unmarked) [Example 36, Sodium [3-(1,2,4-oxadiazol-3-yl)-7-oxo-1,6-diazabicyclo[3.2.1]oct-3-en-6-yl] sulfate], for which the minimal inhibitory concentration (MIC) is 16 µg/mL in experiment [1]; more than 32 µg/mL in experiment [2]; 8 µg/mL in the experiment with E. cloacae P99 (AmpC); 8 µg/mL in experiment [3]; 1 µg/mL in experiment [4]; 4 µg/mL with E. coli RGN238 (OXA-1). Besides, the IC50 came out at 660 nM against OXA-15; 2.3 nM against TEM-1; 2400 nM on OXA-1; 160 nM against AmpC P. aeruginosa; 920 nM against OXA-11; 16 nM at SHV-1. Besides, the IC50 was 43 nM against AmpC (P99), 1.1 nM at CTX-M-15, 2.1 nM at OXA-48 and 39 nM at KPC-2.
